Test results from patent US20220331322A1, “COMPOUND FOR INHIBITING CELL DEATH” (Christian-Albrechts-Universität zu Kiel, priority 2019, published 2022).

What was measured:
RIPK1 = target: T1, RIPK1 (Homo sapiens, UniProt Q13546); assay: KINOMEscan profiling kinase assay
T1 sequence (Q13546 1-671): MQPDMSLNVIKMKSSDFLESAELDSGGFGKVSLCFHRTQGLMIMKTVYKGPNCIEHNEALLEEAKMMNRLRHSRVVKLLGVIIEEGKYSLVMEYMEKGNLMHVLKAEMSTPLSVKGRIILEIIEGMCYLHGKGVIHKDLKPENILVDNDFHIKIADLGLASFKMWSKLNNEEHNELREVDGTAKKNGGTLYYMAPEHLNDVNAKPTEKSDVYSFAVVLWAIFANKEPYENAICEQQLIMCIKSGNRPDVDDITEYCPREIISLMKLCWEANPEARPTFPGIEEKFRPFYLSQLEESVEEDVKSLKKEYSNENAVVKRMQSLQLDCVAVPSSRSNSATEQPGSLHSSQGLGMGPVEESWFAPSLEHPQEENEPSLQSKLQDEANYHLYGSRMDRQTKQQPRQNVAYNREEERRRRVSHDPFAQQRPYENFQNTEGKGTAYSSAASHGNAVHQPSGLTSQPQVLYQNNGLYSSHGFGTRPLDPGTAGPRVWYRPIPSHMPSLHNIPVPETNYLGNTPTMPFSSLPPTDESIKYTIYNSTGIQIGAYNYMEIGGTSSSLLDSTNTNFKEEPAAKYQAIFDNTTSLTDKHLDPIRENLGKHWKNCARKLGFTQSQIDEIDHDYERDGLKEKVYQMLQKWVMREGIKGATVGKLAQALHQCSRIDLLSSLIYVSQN
Experimental: To clarify, a KINOMEscan™ profiling kinase assay was performed. […] Dissociation constants (Kd) for test compound-kinase interactions are calculated by measuring the amount of kinase captured on the solid support as a function of the test compound concentration.

[1] = Kidney ischemia-reperfusion injury (IRI) mouse model; format: in vivo; details: mice
Experimental: IRI is a clinically highly relevant model, since it is an unavoidable consequence after kidney transplantation and contributes to acute kidney injuries in various contexts (Müller et al., 2017). To test whether primidone could be used to suppress pathophysiological RIPK1-mediated cell death in renal IRI, mice were provided with a drinking solution containing either primidone at 2.875 mM or vehicle in the regular drinking water for five days prior to ischemia reperfusion surgery until the end of the reperfusion phase. Induction of murine kidney IRI was performed via a midline abdominal incision and bilateral renal pedicle clamping for 37 min using microaneurysm clamps (Aesculap Inc., Center Valley, Pa., USA). Throughout the surgical procedure, mice were kept under isoflurane narcosis and the body temperature was maintained at 36° C. to 37° C. by continuous monitoring using a temperature-controlled self-regulated heating system (Fine Science Tools, Heidelberg, Germany). After removal of the clamps, reperfusion of the kidneys was confirmed visually before the abdomen was closed in two layers using standard 6-0 sutures. After 48 h reperfusion, the mice were sacrificed, blood samples were taken by retrobulbar punction and organs were collected for analysis.
For histology, kidney samples freshly obtained were fixed in 4.5% neutral-buffered formaldehyde and embedded in paraffin. Sections were dewaxed, rehydrated, and subjected to Masson trichrome staining according to routine protocols. Sections were dehydrated and mounted using DePeX mounting media (Serva). Stainings were evaluated in a blinded manner using a Leica Axiovert microscope and Axio Vision SE64 Rel 4.9. software (Leica Microsystems, Wetzlar, Germany). For data presentation, mild sharpening, contrast enhancement and gamma adjustment was performed. To analyze cell death of the tissue sections, a TdT-mediated dUTP nick end labelling (TUNEL) assay was performed using a fluorescence-based detection kit according to the manufacturer's instructions (G3250, Promega). Briefly, tissue sections were dewaxed, rehydrated, fixed in 4% paraformaldehyde and permeabilized with Proteinase K for 10 min at RT. Following this, the sections were equilibrated with the provided buffer for 10 min and labeled with the TdT reaction mix for 60 min at 37° C. in a humidified dark environment. […] Fluorescence micrographs (data not shown) were acquired with a 20× and 40× objective magnifications using a standard fluorescein filter set to view the green fluorescence at 520 nm with a Leica Axiovert microscope and Axio Vision SE64 Rel 4.9 software. Quantification of TUNEL-positive cells was performed manually by two blinded observers by evaluating 8 randomly selected fields of view per slide.

NF-κB = assay: Western blot of NF-κB activation (p-NF-κB) after TZ stimulation; format: cell-based, murine; details: L929, 100 ng/ml TNF-α + 25 μM zVAD (TZ), 1 mM primidone
Experimental: It was then analyzed whether primidone interferes with the canonical NF-κB signaling pathway which drives the expression of pro-survival molecules. The binding of TNF-α to its corresponding receptor (TNFR1) initially results in the activation of the NF-κB signaling pathway. In this early phase of TNF activation, the cells are protected from cell death by the presence of a membrane-bound complex known as complex I which is formed within seconds after engagement of TNFR1 by TNF-α. This complex induces the expression of pro-survival molecules via activation of the canonical NF-κB pathway. As the default response of most cells to TNF-α is survival and NF-κB-mediated upregulation of pro-survival genes, it was analyzed whether primidone functions in a survival-signaling mode and thus indirectly prevents cell death signaling. For this purpose, murine L929 cells were stimulated at 37° C. for different time periods (as indicated) with 100 ng/ml TNF-α+25 μM zVAD (TZ) in the absence (vehicle) or presence of 1 mM primidone. Subsequently, a Western blot analysis of the cell lysates using a specific p-NF-κB antibody was performed.

[2] = primidone 2.875 mM in drinking water from 5 days before surgery, 37 min bilateral clamping, 48 h after reperfusion

Question: What does the source list for `CCC1(c2ccccc2)C(=O)NCNC1=O` [primidone, 5-Ethyl-5-phenyl-1,3-diazinane-4,6-dione]?
Answer: Binding to RIPK1 kinase domain (prevention of kinase binding to immobilized ligand) (RIPK1): does not inhibit RIPK1 by binding directly to its kinase domain; Serum concentration of creatinine [1, 2]: significantly reduced; Serum concentration of urea [1, 2]: significantly reduced; TUNEL-positive cells (cells undergoing regulated cell death) in kidney sections ([1]; primidone 2.875 mM in drinking water, 48 h reperfusion): significant reduced number of cells undergoing regulated cell death; Masson trichrome histology of renal outer medulla (tissue integrity) ([1]; primidone 2.875 mM in drinking water, 48 h reperfusion, data not shown): better preservation of tissue integrity; Activation (phosphorylation) of NF-κB (NF-κB): Activation (phosphorylation) of NF-κB was detected
